According to article PMC11395397, “Isolation and Characterization of Novel Pueroside B Isomers and Other Bioactive Compounds from Pueraria lobata Roots: Structure Elucidation, α-Glucosidase, and α-Amylase Inhibition Studies” (International Journal of Molecular Sciences, 2024):
Where two headings read alike, the source gives them in different places.

What was measured:
[1] = target: T1, α-amylase (from porcine pancreas) (Sus scrofa, UniProt P00690); assay: α-amylase inhibition assay (DNS colorimetric, 540 nm); assay type: biochemical; conditions: for IC50: means ± SD, n = 3, porcine pancreas enzyme, DNS method, 37 °C; for α-amylase inhibitory activity (in words): tested up to 100.00 μM
T1 construct: purchased Shanghai Yuanye Bio-Technology Co., Ltd. (Shanghai, China); host or cells: porcine pancreas
T1 sequence (P00690 16-511): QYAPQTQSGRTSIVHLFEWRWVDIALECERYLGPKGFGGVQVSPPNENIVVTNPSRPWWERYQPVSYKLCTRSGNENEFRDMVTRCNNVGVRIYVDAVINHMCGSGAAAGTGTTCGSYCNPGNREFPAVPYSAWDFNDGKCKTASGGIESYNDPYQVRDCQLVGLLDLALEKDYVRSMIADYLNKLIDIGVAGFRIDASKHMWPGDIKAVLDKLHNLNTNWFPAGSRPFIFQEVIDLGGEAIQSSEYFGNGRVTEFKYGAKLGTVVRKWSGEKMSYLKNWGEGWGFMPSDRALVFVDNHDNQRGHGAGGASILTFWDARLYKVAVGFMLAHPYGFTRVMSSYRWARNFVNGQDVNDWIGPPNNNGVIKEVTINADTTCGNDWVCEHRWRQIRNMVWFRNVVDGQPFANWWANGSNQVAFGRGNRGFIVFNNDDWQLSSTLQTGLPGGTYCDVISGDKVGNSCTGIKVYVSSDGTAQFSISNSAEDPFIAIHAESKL
Procedure: (§1) ESI-HR-MS was recorded on an Orbitrap Exploris 120 quadrupole electrostatic field orbital well high-resolution mass spectrometer for UPLC-Q-Orbitrap HRMS (Waltham, MA, USA) equipped with a Hypersil GOLD C18 column (2.1 × 100 mm, 1.9 μm, ThermoFisher, Waltham, MA, USA). Optical rotations were measured on an MCP 500 polarimeter (Anton Paar, Graz, Austria). CD spectra were obtained using a Chirascan circular dichroism spectrometer (Applied PhotoPhysics, Leatherhead, Surrey, UK). UV spectra were measured with a UV-3600 Plus spectrophotometer (Shimadzu, Kyoto, Japan), and IR spectra were obtained using an IR Affinity-1S spectrophotometer (Shimadzu, Kyoto, Japan). Preparative and semipreparative HPLC were performed on a Shimadzu LC-16 system using a reverse-phase C18 column (20 × 250 mm, 5 μm, Shimadzu, Kyoto, Japan). NMR experiments were conducted on a Bruker AVANCE-600 instrument with tetramethylsilane (TMS) as an internal standard, operating at 600 MHz for ^1H NMR and 150 MHz for ^13C NMR (Ettlingen, Germany). Enzyme inhibition activity was measured using an Agilent Synergy H1 microplate reader (Agilent Technologies, Santa Clara, CA, USA). Macroporous resin AB-8 was obtained from the Chemical Plant of Nankai University (Tianjin, China). […] Analytical-grade reagents were procured from Da Mao Chemical Reagent Co., Ltd. (Tianjin, China), chromatographic-grade reagents from Honeywell Trade (Shanghai) Co., Ltd. (Shanghai, China), and distilled water from Watsons (Hong Kong, China).
Test sample solutions at various concentrations (5.00, 10.00, 20.00, 40.00, 60.00, 80.00, and 100.00 μM) were preincubated with α-amylase (2 U/mL) at 37 °C for 10 min. The reaction was terminated by adding 200 μL of DNS reagent and boiling the mixture at 100 °C for 5 min to inactivate the enzyme. After cooling to room temperature, 1 mL of distilled water was added for dilution, and absorbance was measured at 540 nm.

[2] = target: T2, α-Glucosidase (from yeast, EC 3.2.1.20) (Saccharomyces cerevisiae, UniProt P53341); assay: biochemical; assay type: biochemical; conditions: for IC50: means ± SD, n = 3, yeast enzyme, p-NPG substrate, 37 °C; for α-glucosidase inhibitory activity (in words): tested up to 100.00 μM
T2 construct: purchased Shanghai Yuanye Bio-Technology Co., Ltd. (Shanghai, China)
Procedure: as §1
Then, 400 μL of p-NPG solution (5 mM) was added to initiate the enzymatic reaction, which continued to incubate at 37 °C for 20 min. The reaction was terminated by placing the mixture in a −20 °C freezer for 10 min. Absorbance was measured at 405 nm using a microplate reader.

T2 sequence (P53341 whole entry): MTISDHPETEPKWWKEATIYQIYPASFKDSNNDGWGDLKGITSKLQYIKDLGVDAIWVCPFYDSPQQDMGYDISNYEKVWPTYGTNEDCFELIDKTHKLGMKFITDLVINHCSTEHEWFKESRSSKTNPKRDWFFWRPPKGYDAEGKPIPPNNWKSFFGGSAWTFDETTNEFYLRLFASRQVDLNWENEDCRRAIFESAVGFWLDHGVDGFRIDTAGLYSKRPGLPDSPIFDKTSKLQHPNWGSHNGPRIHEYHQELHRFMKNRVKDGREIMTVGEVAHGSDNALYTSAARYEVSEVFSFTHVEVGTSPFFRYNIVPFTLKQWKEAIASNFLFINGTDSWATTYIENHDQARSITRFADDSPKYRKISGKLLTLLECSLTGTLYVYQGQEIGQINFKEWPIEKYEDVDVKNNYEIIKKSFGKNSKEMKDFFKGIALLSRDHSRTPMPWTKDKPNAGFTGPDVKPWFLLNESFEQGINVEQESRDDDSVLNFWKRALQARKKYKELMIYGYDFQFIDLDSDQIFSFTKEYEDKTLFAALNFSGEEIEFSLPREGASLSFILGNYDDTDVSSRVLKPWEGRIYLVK

COC1=CC(=O)[C@@]2([C@@H]1O)[C@@H](Cl)C[C@@]13C(OC)=C(OC)C(=O)C[C@@]21CCN3C [Compound 8, acutumine]
IC50 ([1]; read-out: IC50 α-Amylase): 80.7 ± 1.85 µM | IC50 ([2]; read-out: IC50 α-Glucosidase): 66.5 ± 2.03 µM

COc1cc2c(cc1O)[C@@H](Cc1ccc(O)c(Oc3ccc(C[C@@H]4c5cc(OC)c(OC)cc5CCN4C)cc3)c1)N(C)CC2 [Compound 5, daurisoline]
IC50 ([1]; read-out: IC50 α-Amylase): 66.4 ± 2.31 µM | IC50 ([2]; IC50 α-Glucosidase): 45.2 ± 1.27 µM

COc1ccc2c(c[n+](C)c3c4cc5c(cc4ccc23)OCO5)c1OC [Compound 6, chelerythrine]
IC50 ([1]; read-out: IC50 α-Amylase): 71.4 ± 1.24 µM | IC50 ([2]; read-out: IC50 α-Glucosidase): 52.3 ± 1.59 µM

COc1cc2c(cc1OC)[C@@H](Cc1ccc(Oc3cc(C[C@@H]4c5cc(OC)c(OC)cc5CCN4C)ccc3O)cc1)N(C)CC2 [Compound 4, dauricine]
IC50 ([1]; read-out: IC50 α-Amylase): 60.9 ± 1.68 µM | IC50 ([2]; IC50 α-Glucosidase): 44.2 ± 1.03 µM

COc1ccc(C2=CC(=O)OC2Cc2ccc(OC3OC(CO)C(O)C(O)C3O)cc2)c(OC2OC(CO)C(O)C(O)C2O)c1 (stereo not drawn) [Compound 1, 4R-pueroside B]
IC50 ([1]; read-out: IC50 α-Amylase): 81.7 ± 1.72 µM | α-amylase inhibitory activity (in words) [1]: significant inhibitory activity | IC50 ([2]; read-out: IC50 α-Glucosidase): 61.3 ± 1.15 µM | α-glucosidase inhibitory activity (in words) [2]: significant inhibitory activity

CC1(C)C=Cc2cc3c(cc2O1)OC1C2(O)C=CC(=O)C=C2OCC31O (stereo not drawn) [Compound 11, hydroxytuberosone]
IC50 ([1]; read-out: IC50 α-Amylase): 38.9 ± 1.08 µM | IC50 ([2]; read-out: IC50 α-Glucosidase): 32.2 ± 0.71 µM

COc1cc2c(cc1O)[C@@H]1Cc3ccc(O)c(OC)c3CN1CC2 [Compound 7, stepholidine]
IC50 ([1]; read-out: IC50 α-Amylase): 78.2 ± 1.98 µM | IC50 ([2]; read-out: IC50 α-Glucosidase): 58.8 ± 1.55 µM

COc1ccc(C2=CC(=O)OC2Cc2ccc(O)cc2)c(OC2OC(CO)C(O)C(O)C2O)c1 (single isomer, unassigned; (-)) [Compound 3, (−)-puerol B-2-O-glucopyranoside]
IC50 ([1]; read-out: IC50 α-Amylase): 83.6 ± 1.15 µM | α-amylase inhibitory activity (in words) [1]: significant inhibitory activity | IC50 ([2]; read-out: IC50 α-Glucosidase): 72.9 ± 0.79 µM | α-glucosidase inhibitory activity (in words) [2]: significant inhibitory activity

COc1cc(O)ccc1C(O)C(=O)Cc1ccc(O)cc1 (stereo not drawn) [Compound 10]
IC50 ([1]; read-out: IC50 α-Amylase): 63.6 ± 1.37 µM | IC50 ([2]; read-out: IC50 α-Glucosidase): 43.6 ± 0.76 µM

COC1=C[C@@H]2[C@@H]3Cc4ccc(OC)c(O)c4[C@]2(CCN3C)CC1=O [Compound 9, sinomenine]
IC50 ([1]; IC50 α-Amylase): 66.7 ± 1.45 µM | IC50 ([2]; IC50 α-Glucosidase): 57.6 ± 0.88 µM

COc1ccc(C2=CC(=O)OC2Cc2ccc(OC3OC(CO)C(O)C(O)C3O)cc2)c(OC2OC(CO)C(O)C(O)C2O)c1 (stereo not drawn) [Compound 2, 4S-pueroside B]
IC50 ([1]; read-out: IC50 α-Amylase): > 100 µM | α-amylase inhibitory activity (in words) [1]: did not show any activity | IC50 ([2]; read-out: IC50 α-Glucosidase): > 100 µM | α-glucosidase inhibitory activity (in words) [2]: did not show any activity

CC1(C)CC(=O)C2(C)CCC3(C)C(=CCC4C5(C)CCC(=O)C(C)(CO)C5CCC43C)C2C1 (stereo not drawn) [Compound 12, melilotigenin B]
IC50 ([1]; read-out: IC50 α-Amylase): 30.9 ± 0.57 µM | IC50 ([2]; read-out: IC50 α-Glucosidase): 23.3 ± 0.38 µM
